Where two headings read alike, the source gives them in different places. Each block holds one compound with its values, some of them ahead of it.
Legend:
MDA-MB-231 cells [1] = experiment: Immunofluorescence analysis (F-actin, confocal microscopy); format: cell-based; settings: FIG. 6A
Method: MDA-MB-231 cells were grown on the Secureslip™ (Sigma) cell culture glass cover slip to a confluence of 50 to 70%, and incubated in the presence or absence of the compound of Formula 2-1 for various periods of time. The cells were gently washed with cold HBSS, and then fixed with 4% paraformaldehyde-containing HBSS in RBS for 10 minutes. After washing with HBSS, permeabilization with 0.1% Triton X-100 was performed for 10 minutes at mom temperature. After washing twice with HBSS, the cells were blocked with HBSS containing 3% BSA, 0.2% Tween 20 and 0.2% gelatin at room temperature for 1 hour, and incubated with primary antibody at mom temperature for 1 hour. Then, the cells were incubated with fluorochrome-conjugated species-specific secondary antibodies for 1 hour.
All the antibodies were diluted with 1% BSA-containing HBSS. Coverslips were mounted with anti-fading solution, and viewed using a ×63 objective lens of an LSM510 META (Zeiss) laser scanning confocal microscope.

MDA-MB-231 cells [2] = experiment: Cell-based NDPK assay (MDA-MB-231 cell lysate); settings: FIG. 3C, MDA-MB-231 lysate, concentration dependence
Method: (§1) 5 ng of recombinant Nm23-H1 was incubated with 5 μM ADP and a test substance (the compound of Formula 2-1, 3-1 or 4-1) in NDPK assay buffer (20 mM HEPES, 3 mM MgCl2) at mom temperature for 1 minute, and cell-based NDPK assay was performed. A cell lysate obtained from 5,000K MDA-MB-231 cells lysed with a protease inhibitor cocktail and an NDPK assay buffer was centrifuged at 8,000 rpm for 10 minutes at 4° C. 40 μL of the lysate was incubated with the test substance for 5 minutes, and then 50 μM UDP was added thereto and reacted with NDPK. ATP consumption was assessed by an ATP determination kit (Molecular probe, USA).

Nm23-H1 [3] = target: T1, Nm23-H1 (Homo sapiens, UniProt P15531); experiment: NDPK assay with recombinant Nm23-H1; format: biochemical; settings: for Relative NDPK activity (±S.D): relative to a DMSO-treated group (DMSO = 1)
T1 sequence (P15531 whole entry): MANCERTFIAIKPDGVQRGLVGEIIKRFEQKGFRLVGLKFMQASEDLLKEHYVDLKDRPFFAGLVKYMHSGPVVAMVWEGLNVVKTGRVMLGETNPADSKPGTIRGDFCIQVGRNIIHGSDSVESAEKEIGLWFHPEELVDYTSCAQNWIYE
Method: as §1

MDA-MB-231 luc cells = experiment: Breast cancer metastasis model (MDA-MB-231 luc cells in mammary fat pad); format: in vivo, nude mice
From the text: In order to confirm the metastasis suppressing activity of the compound of Formula 2-1 according to the present disclosure in an actual animal model, MDA-MB-231 luc cells were applied to a breast cancer metastasis model.

Rac1 = Rac1 activity assay (active Rac1 pulldown); format: cell-based
Method: MDA-MB-231 cells were grown in a 100 mm dish and treated with the compound of Formula 2-1 or 0.05% DMSO at an indicated concentration for 16 hours. Active Rac1 pulldown assays were performed according to the manufacturer's instructions (Termo Fisher Scientifc).

MDA-MB-231 cells [4] = experiment: Invasion assay and transwell migration assay in MDA-MB-231 cells; format: cell-based
Method: (§2) When cells reached a confluence of 70%, the cells were treated with the compound of Formula 2-1 for 16 hours. 1×10^5 cells were suspended in PBS-free medium and added onto a Boyden chamber membrane. 10% PBS-containing culture was added to the bottom of the membrane. The chamber was incubated at 37° C. under 5% CO2 for 4 hours. The migrated cells were fixed and stained with crystal violet/methanol. The cells were photographed, and the migrated cells were counted and normalized to control cells.

Nm23-H2 = Nm23-H2 (Homo sapiens, UniProt P22392); experiment: NDPK activity assay on Nm23-H2; format: biochemical; settings: FIG. 3D
Sequence of Nm23-H2 (P22392 whole entry): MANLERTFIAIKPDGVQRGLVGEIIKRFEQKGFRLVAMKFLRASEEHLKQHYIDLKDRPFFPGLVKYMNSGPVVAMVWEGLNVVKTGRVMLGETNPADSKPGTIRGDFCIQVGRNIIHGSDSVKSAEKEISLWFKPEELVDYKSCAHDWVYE

A549 cells = experiment: Transwell migration and matrigel invasion of A549 cells; format: cell-based; settings: FIG. 7B
Method: as §2

Nm23-H1 [5] = target: T1, Nm23-H1; experiment: Surface plasmon resonance analysis of interaction with immobilized Nm23-H1; format: binding; settings: SPR, 25° C.; for Kd: calculated Kd/Ka; for kon: read-out: Ka
Method: The interaction between the compound of Formula 2-1 and Nm23-H1 was analyzed using a surface plasmon resonance instrument (SR7500 DC, Reichert Inc., NY) at 25° C.
Nm23-H1 (1 mg/ml) in 10 mM S.A buffer (pH 4.5) was immobilized using the standard amino coupling at 20 μL/min for 10 minutes on a carboxymethyl dextran hydrogel (CMDH) surface sensor chip (Reichert Technologies, NY) until saturation was achieved.
Different concentrations of the compound of Formula 2-1 (10-160 μM) in binding buffer (10 mM HEPES, pH 7.4, 100 mM NaCl, 1 mM MgCl2, and with or without 2 mM ATP) were allowed to flow over the immobilized Nm23-H1 (approximately 8200 RU) at a rate of 30 μL/min.
The sensor surface was regenerated after each association and dissociation cycle by injecting 2M NaCl for 1 min. Sensorgrams were fitted to a simple 1:1 Langmuir interaction model (A+B⇄AB) using data analysis program Scrubber 2.0 (BioLogic Sofware, Australia, and Kaleida Graph Sofware, Australia).
KD is a value obtained by calculating Kd/Ka.

Nm23-H1 [6] = target: T1, Nm23-H1; experiment: Isothermal titration calorimetry; format: binding; settings: FIG. 4, with and without ATP
Method: An ITC experiment was performed using the ITC200 system (Malvern Inc.), and the data were analyzed using ORIGIN 7.0 program. The concentration of Nm23-H1 protein in the cells was 30 μM, and the syringe contained 300 μM of the activator or 1 mM ATP. The activator was prepared at a concentration of 50 mM in DMSO (dimethyl sulfoxide) and stored at −20° C. ITC buffer contained (pH 7.5) 150 mM NaCl, 3 mM MgCl2 and 20 mM HEPES in up to 2% DMSO. For titration, each 2 μL was injected 20 times 25° C. at intervals of 150 seconds. No evidence of DMSO binding at the nucleotide binding site was observed. The experimental raw data were corrected by subtracting the value for the buffer, and then fitted to a single site binding model. The titration data were fitted using a nonlinear least squares curve-fitting algorithm with three floating variables: stoichiometry (N), dissociation constant (KD), and change of enthalpy of interaction.

[7] = FIG. 7A, MDA-MB-231 cells, different concentrations

NDPK activity of Nm23-H1 (Nm23-H1 [3]; FIG. 3A, concentration dependence): increased depending on the concentration
Relative NDPK activity (±S.D) (Nm23-H1 [3]): 4.04 (±0.13)
NDPK activity on Nm23-H2 (Nm23-H2): showed the same activity
Kd (Nm23-H1 [5]; 2 nM ATP): 1.49 ± 0.03 µM
kon (Nm23-H1 [5]; 2 nM ATP): 71 ± 1 M⁻¹ s⁻¹
Kd (Nm23-H1 [5]; without ATP): 17.9 ± 0.2 µM
kon (Nm23-H1 [5]; without ATP): 78 ± 1 M⁻¹ s⁻¹
Structure (SMILES): COc1ccc(/C=C/[C@H]2CCC=C[C@@H]2c2ccc(OC)c(OC)c2)cc1OC [Formula 2-1]
change of F-actin / cell morphology (MDA-MB-231 cells [1]): ruffles decreased and intercellular contact increased
cell-based NDPK activity (MDA-MB-231 cells [2]): increased depending on the concentration
V0, Km of the enzyme (NDPK activity depending on the concentration of UDP) (Nm23-H1 [3]; FIG. 3B): Km-type activity similar to that of a conventional enzyme activator
metastasis of the cells to the lung (MDA-MB-231 luc cells; FIG. 8, 10 mg/kg daily, 4 weeks): decreased
volume of the tumor (MDA-MB-231 luc cells; FIG. 9, 10 mg/kg daily): decreased
cells that metastasized to the lung (MDA-MB-231 luc cells; FIG. 10, 10 mg/kg daily): statistically significantly decreased
activity of Rac1 (Rac1; FIG. 6B, MDA-MB-231 cells, 16 hours): reduced the activity of Rac1 in a concentration-dependent manner
effect on Rac1 activity after knockdown of Nm23-H1 (Rac1; FIGS. 6C and 6D): abolished by knockdown of Nm23-H1
matrigel invasion (MDA-MB-231 cells [4]; [7]): reduced
transwell migration (MDA-MB-231 cells [4]; [7]): reduced
effect on migration/invasion after knockdown of Nm23-H1 and Nm23-H2 (MDA-MB-231 cells [4]; FIG. 7C): reduced by knockdown of Nm23-H1 and Nm23-H2
matrigel invasion (A549 cells): reduced
transwell migration (A549 cells): reduced
direct interaction with Nm23-H1 (ITC) (Nm23-H1 [6]): occurred and was further enhanced in the presence of ATP

Relative NDPK activity (±S.D) (Nm23-H1 [3]): 2.41 (±0.29)
Structure (SMILES): COc1ccc(/C=C/[C@H]2CCCCC2c2ccc(OC)c(OC)c2)cc1OC (some centres unmarked) [Formula 4-1]

Relative NDPK activity (±S.D) (Nm23-H1 [3]): 4.11 (±0.16)
Structure (SMILES): COc1ccc(/C=C/c2ccccc2-c2ccc(OC)c(OC)c2)cc1OC [Formula 3-1]
